In experiment [1] the test system is integrin β5 localization in PA-JEB/β4 keratinocytes. The experiment can be described thus: Immunofluorescence: integrin β5 clustering in FAs/FCLs, PA-JEB/β4. The format is cell-based, human. From the text:
Fig. 3. Serine 759 and 762 are involved in regulating the localization of integrin β5. (A–C) Integrin β5 containing S759/762E or S759/762A mutations (A) were expressed in β5-deficient PA-JEB/β4 keratinocytes and the subcellular distribution of β5 was compared to β5-deficient keratinocytes expressing wild-type (WT) β5. Merged images show integrin β5 (green), vinculin (B) or clathrin (C) (red), actin (blue) and the cell nuclei (cyan). (D,E) Analysis of wild-type versus mutant integrin β5 clustering in FAs or FCLs. (F–I) PA-JEB/β4 keratinocytes were grown in 10% FCS-supplemented DMEM culture medium overnight and then treated with 5 nM calyculin A (Cal.A) or DMSO (vehicle control) for 30 min prior to fixation. Merged images show integrin β5 (green), vinculin (F) or clathrin (H) (red), actin (blue) and the cell nuclei (cyan), quantifications of β5 clustering in FAs or FCLs are shown in G,I. (J,K) Analysis of integrin β5 clustering in FAs or FCLs in PA-JEB keratinocytes after treatment with Cal.A. Representative confocal microscopy images are shown in Fig. S3. Scale bars: 20 μm. Data were obtained from three independent experiments. Total cells analyzed per condition: 109 (WT), 116 (S>E), 103 (S>A) (D), 81 (WT), 77 (S>E), 101 (S>A) (E), 126 and 123 (G), 111 and 101 (I), 106 and 102 (J), 115 and 109 (K). ****P<0.0001 (Mann–Whitney U-test). Box plots range from the 25th to 75th percentile; central line indicates the median; whiskers show smallest to largest value.
PA-JEB/β4 keratinocytes were seeded on glass coverslips and cultured in complete KGM medium for 24 h, and then treated with DMEM plus 10% FCS for 24 h. Other cell lines were seeded on glass coverslips and cultured in DMEM plus 10% FCS. Cells were fixed with 2% paraformaldehyde (PFA) for 10 min, permeabilized with 0.2% Triton X-100 for 5 min, and blocked with PBS containing 2% bovine serum albumin (BSA; Sigma) for at least 30 min. Next, cells were incubated with the primary antibodies for 1 h at room temperature. Cells were washed three times before incubation with the secondary antibodies for 1 h. Additionally, nuclei were stained with DAPI, and filamentous actin was visualized using Alexa Fluor 488 or 647-conjugated phalloidin (Invitrogen). After three washing steps with PBS, the coverslips were mounted onto glass slides in Mowiol. Images were obtained using a Leica TCS SP5 confocal microscope with a 63× (NA 1.4) oil objective.
Image analysis was performed using Fiji (ImageJ) ([Schindelin et al., 2012]; [Schneider et al., 2012]). To quantify integrin clustering in FAs (based on vinculin staining) versus FCLs (clathrin staining), background was subtracted in both channels using a bilateral filter and the region of interest (ROI) was selected at the cell periphery. Colocalization of integrin clusters and FAs or FCLs was determined using the Image Calculator (command ‘multiply’) on both channels and calculating the area of overlapping clusters as a percentage of the total integrin cluster area per cell using the Analyze Particle function.

In experiment [2] the test system is phosphorylated MLC in PA-JEB/β4 keratinocytes. As to the kind of experiment: Western blot: cell tension (phosphorylated myosin light chain). In kind it is cell-based, human. The conditions noted are these: nocodazole. As to the method: Proteins were separated by electrophoresis using a Bolt Novex 4–12% gradient Bis-Tris gels (Invitrogen) or 15% SDS-PAGE gels (made in-house), transferred to Immobilon-P transfer membranes (Millipore Corp) and blocked for at least 30 min in 2% BSA in TBST buffer (10 mM Tris-HCl pH 7.5, 150 mM NaCl and 0.3% Tween-20). Primary antibody (diluted 1:1000 in 2% BSA in TBST buffer) incubation took place overnight at 4°C. After washing twice with TBST and twice with TBS, blots were incubated for 1 h hour at room temperature with horseradish peroxidase-conjugated goat anti-mouse-IgG or goat anti-rabbit-IgG (diluted 1:3000 in 2% BSA in TBST buffer). After subsequent washing steps, the bound antibodies were detected by enhanced chemiluminescence using SuperSignal™ West Dura Extended Duration Substrate (ThermoFisher) or Clarity™ Western ECL Substrate (Bio-Rad) as described by the manufacturer. Signal intensities were quantified using ImageJ.
Fig. S4. (A) Representative western blots of phosphorylated myosin light chain (MLC) and GAPDH in PA-JEB/β4 keratinocytes treated with DMSO versus Nocodazole. […]
μm. Quantifications of β5 or β5 mutants clustering in FAs are shown in (C-E). […] Total cells analyzed per condition: 90 (WT, DMSO), 111 (WT, Noco.) (C), 40 (S>E, DMSO), 80 (S>E, Noco.) (D), 65 (S>A, DMSO), 82 (S>A, Noco.) (E). […]

`COC(=O)Nc1nc2ccc(C(=O)c3cccs3)cc2[nH]1` [nocodazole]: the “localization of β5 in FCLs” value in experiment [1] (nocodazole) is given as “inhibits the localization of β5 in FCLs”. In addition, the “localization of β5 within FAs and FCLs” value in experiment [1] (nocodazole versus DMSO, three independent experiments) is “significant shift in the localization of β5 from FCLs to FAs”. Also, the “localization of phospho-inhibitory β5 mutant” value in experiment [1] (nocodazole, β5-deficient keratinocytes expressing β5-S759/762A) was “neither of their localizations were altered”. In addition, in experiment [1] (nocodazole, β5-deficient keratinocytes expressing β5-S759/762E), the “localization of phospho-mimetic β5 mutant” value is “neither of their localizations were altered”. In addition, in experiment [2], the cell tension result is “increased cell tension”.

Values taken from PMC9234671, “Molecular determinants of αVβ5 localization in flat clathrin lattices – role of αVβ5 in cell adhesion and proliferation” (Journal of Cell Science, 2022).
